Assay results: US8247211B2, “Glycopeptide antibiotics” (American Cyanamid Company, priority 2001, dated 2012)
Numbered stars: 1 amine (or outer) side, 2 acyl side, 3 side chain; on linkers, the order of the positions; unused ones are H or OH. Square brackets hold non-standard residues; d marks the D form. Peptide text beside a SMILES is read from it. * marks the point of attachment. ξ: configuration not given here. X1 = N=C1NCC(C(O)C(N[*:1])C(=O)[*:2])N1C1OC(CO)C(O)C(O)C1O; ξEnduracididine(βξ-OH,4'ξ) = N=C1NCC(C(O)C(N)C(=O)O)N1; X2 = OCC1OC(OC2C(CO)OC(*)C(O)C2O)C(O)C(O)C1O; ξCha(3ξ-Me) = CC(C1CCCCC1)C(N)C(=O)O; Cha = N[CH](CC1CCCCC1)C(=O)O

How the values were obtained:
Experiment in all cases: In vitro antibacterial evaluation: minimum inhibitory concentration (MIC), broth dilution method
Type in all cases: cell-based
Enterococcus sp. = conditions: broth dilution, 18 hours at 35° C.
How it was run: (§1)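 Inoculum: 5×10^5 CFU/mL. Range: 64-0.06 μg/mL. Medium: Muller-Hinton II […]; NCCLS M7-A2 broth dilution. Endpoint: lowest concentration inhibiting growth. Strains include methicillin-, penicillin- and/or vancomycin-resistant clinical isolates.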

Staphylococcus sp. = conditions: broth dilution, 18 hours at 35° C.; for MIC Staphylococcus aureus-SMITH (GC 4543): strain SMITH GC 4543
How it was run: as §1

Streptococcus sp. = conditions: broth dilution, 18 hours at 35° C.
How it was run: as §1

Escherichia coli = conditions: broth dilution, 18 hours at 35° C.
[1] = Enterococcus faecalis (GC 2242)
[2] = Enterococcus faecalis (GC 2691)
[3] = Enterococcus faecalis (GC 3059)
[4] = Streptococcus agalactiae (GC 4564)
[5] = Streptococcus pneumoniae (ATCC 6301)
[6] = Streptococcus pneumoniae (GC 1894)
[7] = Streptococcus pneumoniae (GC 4565)
[8] = Streptococcus pyogenes (GC 4563)
[9] = Enterococcus faecalis (ATCC 29212)
[10] = Enterococcus faecalis (GC 4552)
[11] = Enterococcus faecalis (GC 4553)
[12] = Enterococcus faecalis (GC 4554)
[13] = Enterococcus faecalis (GC 6189)

CC(C1CCCCC1)C1NC(=O)CNC(=O)C(CO)NC(=O)C(C(O)C2CNC(=N)N2C2OC(CO)C(O)C(O)C2O)NC(=O)C(C(O)C2CNC(=N)N2)NC(=O)C(CC2CCCCC2)NC1=O (stereo not drawn) [Example 53, Cyclo[3-cyclohexylalanyl-3-(2-iminoimidazolidin-4-yl)seryl-3-(3-hexopyranosyl-2-iminoimidazolidin-4-yl)serylserylglycyl-3-cyclohexyl-2-aminobutanoyl]] (cyclo(G[ξCha(3ξ-Me)][Cha][ξEnduracididine(βξ-OH,4'ξ)][X1]S); configuration not given here)
2 µg/mL: MIC Enterococcus faecium (GC 2243) (Enterococcus sp.) | MIC Enterococcus faecium (GC 4557) (Enterococcus sp.) | MIC Coagulase Negative Staphylococcus (GC 4547) (Staphylococcus sp.) | MIC Coagulase Negative Staphylococcus (GC 4548) (Staphylococcus sp.) | MIC Coagulase Negative Staphylococcus (GC 4551) (Staphylococcus sp.) | MIC Staphylococcus aureus SMITH (GC 4543) (Staphylococcus sp.) | MIC Staphylococcus aureus-SMITH (GC 4543) (Staphylococcus sp.)
8 µg/mL: MIC Enterococcus faecalis (GC 2242) (Enterococcus sp.; [1]) | MIC Enterococcus faecalis (GC 2691) (Enterococcus sp.; [2]) | MIC Enterococcus faecalis (GC 3059) (Enterococcus sp.; [3]) | MIC Enterococcus faecalis (ATCC 29212) (Enterococcus sp.) | MIC Enterococcus faecalis (GC 2242) (Enterococcus sp.) | MIC Enterococcus faecalis (GC 2691) (Enterococcus sp.) | MIC Enterococcus faecalis (GC 3059) (Enterococcus sp.) | MIC Enterococcus faecalis (GC 4552) (Enterococcus sp.) | MIC Enterococcus faecium (GC 4556) (Enterococcus sp.)
16 µg/mL: MIC Enterococcus faecalis (GC 4554) (Enterococcus sp.)
1 µg/mL: MIC Coagulase Negative Staphylococcus (GC 4549) (Staphylococcus sp.) | MIC Staphylococcus haemolyticus (GC 4546) (Staphylococcus sp.) | MIC Streptococcus agalactiae (GC 4564) (Streptococcus sp.; [4]) | MIC Streptococcus pneumoniae (ATCC 6301) (Streptococcus sp.; [5]) | MIC Streptococcus pneumoniae (GC 1894) (Streptococcus sp.; [6]) | MIC Streptococcus pyogenes (GC 4563) (Streptococcus sp.; [8]) | MIC Streptococcus agalactiae (GC 4564) (Streptococcus sp.) | MIC Streptococcus pneumoniae (ATCC 6301) (Streptococcus sp.) | MIC Streptococcus pneumoniae (GC 1894) (Streptococcus sp.) | MIC Streptococcus pyogenes (GC 4563) (Streptococcus sp.)
4 µg/mL: MIC Enterococcus avium (GC 4558) (Enterococcus sp.) | MIC Enterococcus faecalis (GC 4553) (Enterococcus sp.) | MIC Enterococcus faecalis (GC 6189) (Enterococcus sp.) | MIC Streptococcus pneumoniae (GC 4565) (Streptococcus sp.; [7]) | MIC Streptococcus pneumoniae (GC 4565) (Streptococcus sp.) | MIC Escherichia coli (GC 4560) (Escherichia coli)

CC(c1ccccc1)C1NC(=O)CNC(=O)C(CO)NC(=O)C(C(O)C2CNC(=N)N2C2OC(CO)C(O)C(O)C2O)NC(=O)C(C(O)C2CNC(=N)N2)NC(=O)C(Cc2ccc3oc(SCc4ccccc4)nc3c2)NC1=O (stereo not drawn) [Example 45, Cyclo[3-[2-(benzylthio)-1,3-benzoxazol-5-yl]alanyl-3-(2-iminoimidazolidin-4-yl)seryl-3-(3-hexopyranosyl-2-iminoimidazolidin-4-yl)serylserylglycyl-β-methylphenylalanyl]]
4 µg/mL: MIC Enterococcus faecium (GC 4557) (Enterococcus sp.; Enterococcus faecium (GC 4557)) | MIC Enterococcus faecium (GC 4557) (Enterococcus sp.) | MIC Coagulase Negative Staphylococcus (GC 4547) (Staphylococcus sp.) | MIC Coagulase Negative Staphylococcus (GC 4549) (Staphylococcus sp.) | MIC Coagulase Negative Staphylococcus (GC 6257) (Staphylococcus sp.) | MIC Staphylococcus haemolyticus (GC 4546) (Staphylococcus sp.) | MIC Streptococcus pyogenes (GC 4563) (Streptococcus sp.; [8]) | MIC Streptococcus pyogenes (GC 4563) (Streptococcus sp.) | MIC Escherichia coli (GC 4560) (Escherichia coli)
16 µg/mL: MIC Enterococcus faecalis (GC 2242) (Enterococcus sp.; [1]) | MIC Enterococcus faecalis (GC 4552) (Enterococcus sp.; [10]) | MIC Enterococcus faecalis (GC 4553) (Enterococcus sp.; [11]) | MIC Enterococcus faecalis (GC 4554) (Enterococcus sp.; [12]) | MIC Enterococcus faecalis (GC 6189) (Enterococcus sp.; [13]) | MIC Enterococcus faecium (GC 2243) (Enterococcus sp.; Enterococcus faecium (GC 2243)) | MIC Enterococcus faecalis (GC 2242) (Enterococcus sp.) | MIC Enterococcus faecalis (GC 4552) (Enterococcus sp.) | MIC Enterococcus faecalis (GC 4553) (Enterococcus sp.) | MIC Enterococcus faecalis (GC 4554) (Enterococcus sp.) | MIC Enterococcus faecalis (GC 6189) (Enterococcus sp.) | MIC Enterococcus faecium (GC 2243) (Enterococcus sp.) | MIC Streptococcus agalactiae (GC 4564) (Streptococcus sp.; [4]) | MIC Streptococcus pneumoniae (ATCC 6301) (Streptococcus sp.; [5]) | MIC Streptococcus pneumoniae (GC 1894) (Streptococcus sp.; [6]) | MIC Streptococcus agalactiae (GC 4564) (Streptococcus sp.) | MIC Streptococcus pneumoniae (ATCC 6301) (Streptococcus sp.) | MIC Streptococcus pneumoniae (GC 1894) (Streptococcus sp.) | MIC Escherichia coli (ATCC 25922) (Escherichia coli) | MIC Escherichia coli (GC 4559) (Escherichia coli)
32 µg/mL: MIC Enterococcus faecalis (ATCC 29212) (Enterococcus sp.; [9]) | MIC Enterococcus faecalis (GC 2691) (Enterococcus sp.; [2]) | MIC Enterococcus faecalis (GC 3059) (Enterococcus sp.; [3]) | MIC Enterococcus faecium (GC 4556) (Enterococcus sp.; Enterococcus faecium (GC 4556)) | MIC Enterococcus faecalis (ATCC 29212) (Enterococcus sp.) | MIC Enterococcus faecalis (GC 2691) (Enterococcus sp.) | MIC Enterococcus faecalis (GC 3059) (Enterococcus sp.) | MIC Enterococcus faecium (GC 4556) (Enterococcus sp.) | MIC Streptococcus pneumoniae (GC 4565) (Streptococcus sp.; [7]) | MIC Streptococcus pneumoniae (GC 4565) (Streptococcus sp.)
8 µg/mL: MIC Enterococcus avium (GC 4558) (Enterococcus sp.; Enterococcus avium (GC 4558)) | MIC Enterococcus avium (GC 4558) (Enterococcus sp.) | MIC Coagulase Negative Staphylococcus (GC 4548) (Staphylococcus sp.) | MIC Coagulase Negative Staphylococcus (GC 4551) (Staphylococcus sp.) | MIC Staphylococcus aureus SMITH (GC 4543) (Staphylococcus sp.) | MIC Staphylococcus aureus-SMITH (GC 4543) (Staphylococcus sp.)

CC(C1CCCCC1)C1NC(=O)CNC(=O)C(CO)NC(=O)C(C(O)C2CNC(=N)N2C2OC(CO)C(O)C(O)C2O)NC(=O)C(C(O)C2CNC(=N)N2)NC(=O)C(Cc2ccc(OC3OC(CO)C(OC4OC(CO)C(O)C(O)C4O)C(O)C3O)cc2)NC1=O (stereo not drawn) [Example 51, Cyclo[3-cyclohexyl-2-aminobutyl-O-(4-O-hexopyranosylhexopyranosyl)tyrosyl-3-(2-iminoimidazolidin-4-yl)seryl-3-(3-hexopyranosyl-2-iminoimidazolidin-4-yl)-serylserylglycyl]] (cyclo(G[ξCha(3ξ-Me)]Y(X2)[ξEnduracididine(βξ-OH,4'ξ)][X1]S); configuration not given here)
4 µg/mL: MIC Coagulase Negative Staphylococcus (GC 4549) (Staphylococcus sp.) | MIC Streptococcus pneumoniae (GC 1894) (Streptococcus sp.; [6]) | MIC Streptococcus pneumoniae (GC 1894) (Streptococcus sp.)
32 µg/mL: MIC Staphylococcus aureus SMITH (GC 4543) (Staphylococcus sp.) | MIC Staphylococcus haemolyticus (GC 4546) (Staphylococcus sp.) | MIC Staphylococcus aureus-SMITH (GC 4543) (Staphylococcus sp.)
16 µg/mL: MIC Enterococcus faecium (GC 4557) (Enterococcus sp.; Enterococcus faecium (GC 4557)) | MIC Enterococcus faecium (GC 4557) (Enterococcus sp.) | MIC Coagulase Negative Staphylococcus (GC 4547) (Staphylococcus sp.) | MIC Coagulase Negative Staphylococcus (GC 4548) (Staphylococcus sp.) | MIC Streptococcus agalactiae (GC 4564) (Streptococcus sp.; [4]) | MIC Streptococcus agalactiae (GC 4564) (Streptococcus sp.)
64 µg/mL: MIC Enterococcus avium (GC 4558) (Enterococcus sp.; Enterococcus avium (GC 4558)) | MIC Enterococcus faecalis (GC 2242) (Enterococcus sp.; [1]) | MIC Enterococcus avium (GC 4558) (Enterococcus sp.) | MIC Enterococcus faecalis (GC 2242) (Enterococcus sp.) | MIC Coagulase Negative Staphylococcus (GC 4551) (Staphylococcus sp.) | MIC Escherichia coli (GC 4559) (Escherichia coli)
>64 µg/mL: MIC Enterococcus faecalis (ATCC 29212) (Enterococcus sp.; [9]) | MIC Enterococcus faecalis (GC 2691) (Enterococcus sp.; [2]) | MIC Enterococcus faecalis (GC 3059) (Enterococcus sp.; [3]) | MIC Enterococcus faecalis (GC 4552) (Enterococcus sp.; [10]) | MIC Enterococcus faecalis (GC 4553) (Enterococcus sp.; [11]) | MIC Enterococcus faecalis (GC 4554) (Enterococcus sp.; [12]) | MIC Enterococcus faecalis (GC 6189) (Enterococcus sp.; [13]) | MIC Enterococcus faecium (GC 2243) (Enterococcus sp.; Enterococcus faecium (GC 2243)) | MIC Enterococcus faecium (GC 4556) (Enterococcus sp.; Enterococcus faecium (GC 4556)) | MIC Enterococcus faecalis (ATCC 29212) (Enterococcus sp.) | MIC Enterococcus faecalis (GC 2691) (Enterococcus sp.) | MIC Enterococcus faecalis (GC 3059) (Enterococcus sp.) | MIC Enterococcus faecalis (GC 4552) (Enterococcus sp.) | MIC Enterococcus faecalis (GC 4553) (Enterococcus sp.) | MIC Enterococcus faecalis (GC 4554) (Enterococcus sp.) | MIC Enterococcus faecalis (GC 6189) (Enterococcus sp.) | MIC Enterococcus faecium (GC 2243) (Enterococcus sp.) | MIC Enterococcus faecium (GC 4556) (Enterococcus sp.) | MIC Escherichia coli (ATCC 25922) (Escherichia coli)
8 µg/mL: MIC Streptococcus pneumoniae (ATCC 6301) (Streptococcus sp.; [5]) | MIC Streptococcus pneumoniae (GC 4565) (Streptococcus sp.; [7]) | MIC Streptococcus pyogenes (GC 4563) (Streptococcus sp.; [8]) | MIC Streptococcus pneumoniae (ATCC 6301) (Streptococcus sp.) | MIC Streptococcus pneumoniae (GC 4565) (Streptococcus sp.) | MIC Streptococcus pyogenes (GC 4563) (Streptococcus sp.) | MIC Escherichia coli (GC 4560) (Escherichia coli)
